How the values were obtained:
Type in all cases: nucleic-acid assay
Parameters in all cases: scale not given: the % may be the effect or the level left
Conditions in all cases: Escherichia coli
[1] = test system: Nucleic Acid; assay: DNA photocleavage activity assessed as pBluescript form II levels at 5 uM by plasmid DNA relaxation assay
[2] = test system: Nucleic Acid; assay: DNA photocleavage activity assessed as pBluescript form II levels at 10 uM by plasmid DNA relaxation assay
[3] = test system: Nucleic Acid; assay: DNA photocleavage activity assessed as pBluescript form II levels at 1 uM by plasmid DNA relaxation assay
[4] = test system: Nucleic Acid; assay: DNA photocleavage activity assessed as pBluescript form II levels at 20 uM by plasmid DNA relaxation assay

Activity [1]: 16%
Activity [2]: 18%
Activity [3]: 12%
Activity [4]: 21%
SMILES: O=c1c2ccccc2[se]n1-c1ccc(-c2c3nc(c(-c4ccccc4)c4ccc([nH]4)c(-c4ccccc4)c4nc(c(-c5ccccc5)c5ccc2[nH]5)C=C4)C=C3)cc1
